The numbers were not newly measured in US20240065969A1, “OPHTHALMIC TOPICAL CREAM FORMULATIONS AND USES THEREOF” (Glaukos Corporation, priority 2022, published 2024), which cites them from elsewhere.

Each structure is given as a SMILES string.

As usually defined, the pKa is the pH at which an ionisable group is half protonated. For the molecule `CC[C@@H]1C(=O)OC[C@@H]1Cc1cncn1C` [pilocarpine], the pKa is on record as approximately 6.5.
